42 compounds from patent US8822691B2, “Pesticidal carboxamides” (Bayer CropScience AG, priority 2009, dated 2014) can be followed below.

Holding throughout (type): in vivo
The test system of assay [1] is Spodoptera litura. The experiment in a line: Test against tobacco cutworm (Spodoptera litura) larvae, leaf dip. The conditions noted are these: active compound concentration of 100 ppm, third instar larvae on sweet potato leaves, after 7 days; for pest or weed control at 100 ppm: foliar, 168 h, read-out: insecticidal activity. How it is done: (§1) Unless not mentioned otherwise, the test solutions were prepared as follows:
(§2) Containing as solvent: Dimethylformamide, 3 parts by weight; and as emulsifier: Polyoxyethylene alkyl phenyl ether, 1 part by weight
(§3) To prepare the test solution, 1 part by weight of an active compound is mixed with the above-mentioned amount of solvent containing the above-mentioned amount of emulsifier, and the mixture is diluted with water to the desired concentration.
Leaves of sweet potato were immersed in the test solution at the appropriate concentration, and the leaves were dried in air. The leaves were then placed in a petri dish having a diameter of 9 cm, and ten Spodoptera litura at third instar larvae were released therein. The petri dishes were placed in a temperature-controlled chamber at 25° C. After 2 days and 4 days more sweet potato leaves were added. After 7 days, the number of dead larvae was counted to calculate the insecticidal activity. An insecticidal activity of 100% means that all larvae were killed, whereas an insecticidal activity of 0% means that no larva was killed. In the current test, the results of two petri dishes for each treatment were averaged.

Assay [2] concerns Aulacophora femoralis. The experiment in a line: Test against cucurbit leaf beetle (Aulacophora femoralis), leaf dip. The conditions noted are these: for pest or weed control at 500 ppm: Aulacophora, foliar, 168 h, read-out: insecticidal activity. As for the experimental part: as §1, §2, §3
Leaves of cucumber were immersed in the test solution at the appropriate concentration, and the leaves were dried in air. The leaves were then put in a plastic cup containing sterilized black soil and five Aulacophora femoralis at second instar larvae were released in the cup. The cups were placed in a temperature-controlled chamber at 25° C. After 7 days, the number of dead larvae was counted, and thus the insecticidal activity was calculated. An insecticidal activity of 100% means that all larvae were killed, whereas an insecticidal activity of 0% means that no larva was killed.

Assay [3] has as its system Tetranychus urticae. Description: Test against two-spotted spider mite (Tetranychus urticae), spray. The conditions noted are these: active compound concentration of 500 ppm; adult mites on kidney bean; after 7 days. How it is done:
as §1, §2, §3
50 to 100 adult mites of Tetranychus urticae were inoculated to leaves of kidney bean at two-leaf stage planted in a pot of 6 cm in diameter. After one day, test solution at the appropriate concentration was sprayed thereon in a sufficient amount using a spray gun. After the spraying, the plant pot was placed inside a greenhouse, and after 7 days, the acaricidal activity was calculated. An acaricidal activity of 100% means that all mites were killed, whereas an acaricidal activity of 0% means that no mite was killed.

The mark [4] stands for this setting: active compound concentration of 500 ppm, second instar larvae on cucumber leaves, after 7 days.

Read-outs that look alike come from different tables or passages of the source.

For the compound `N#Cc1ccc2cc(C(=O)Nc3c(I)cc(C(F)(C(F)(F)F)C(F)(F)C(F)(F)F)cc3I)ccc2n1` (centres unmarked) [2-113], the insecticidal activity in assay [1] and in assay [2] (setting [4]) was 100% in each case. Consider `Cc1cc(C(F)(C(F)(F)F)C(F)(F)F)cc(C)c1NC(=O)c1ccc2nc(Br)ccc2c1` [2-18], for which the insecticidal activity in assay [2] (setting [4]) is recorded as 100%. As to `CCCc1cc(C(F)(C(F)(F)F)C(F)(F)C(F)(F)F)cc(I)c1NC(=O)c1ccc2c(ccc[n+]2[O-])c1` (centres unmarked) [2-103], the insecticidal activity in assay [1] is on record as 100%. For the compound `CCOC(c1cc(C)c(NC(=O)c2ccc3nc(C#N)ccc3c2)c(CC)c1)(C(F)(F)F)C(F)(F)F` [2-74], the insecticidal activity in assay [1] and in assay [2] (setting [4]) was 100% throughout.

Take `CCCc1cc(C(F)(C(F)(F)F)C(F)(F)C(F)(F)F)cc(I)c1NC(=O)c1ccc2nc(C#N)ccc2c1` (centres unmarked) [2-104]: the insecticidal activity in assay [1] and in assay [2] (setting [4]) was 100% in each case. With `CC(C)c1cc(C(F)(C(F)(F)F)C(F)(F)C(F)(F)F)cc(I)c1NC(=O)c1ccc2nc(C#N)ccc2c1` (centres unmarked) [2-167], the insecticidal activity in assay [1] and in assay [2] (setting [4]) was 100% throughout.

For the compound `N#Cc1ccc2cc(C(=O)Nc3c(I)cc(C(F)(C(F)(F)F)C(F)(F)Br)cc3I)ccc2n1` (centres unmarked) [2-200], the insecticidal activity in assay [1] and in assay [2] (setting [4]) was 100% in each case. On to `O=C(Nc1c(Cl)cc(C(F)(C(F)(F)F)C(F)(F)F)cc1Cl)c1ccc2ncccc2c1` [2-59], for which the insecticidal activity in assay [2] (setting [4]) is listed as 100%. In turn, `Cc1cc(C(F)(C(F)(F)F)C(F)(F)Br)cc(C)c1NC(=O)c1ccc2ncccc2c1` (centres unmarked) [2-189] displayed an acaricidal activity in assay [3] of 100%. As for `Cc1cc(C(F)(C(F)(F)F)C(F)(F)F)cc(C(C)C)c1NC(=O)c1ccc2nc(C#N)ccc2c1` [2-37], the insecticidal activity in assay [1] and in assay [2] (setting [4]) was 100% throughout. Consider `O=C(Nc1c(I)cc(C(F)(C(F)(F)F)C(F)(F)C(F)(F)F)cc1I)c1ccc2ncccc2c1` (centres unmarked) [2-111], for which the insecticidal activity in assay [1] came to 100%. As to `CCCc1cc(C(F)(C(F)(F)F)C(F)(F)C(F)(F)F)cc(Br)c1NC(=O)c1ccc2ncccc2c1` (centres unmarked) [2-162], the insecticidal activity in assay [1] and in assay [2] (setting [4]) was 100% each time. Take `O=C(Nc1c(I)cc(C(F)(C(F)(F)F)C(F)(F)C(F)(F)F)cc1I)c1ccc2c(ccc[n+]2[O-])c1` (centres unmarked) [2-112]: in assay [2] (setting [4]), the insecticidal activity amounted to 100%. Turning to `CCc1cc(C2(F)C(F)(F)C(F)(F)C(F)(F)C(F)(F)C2(F)F)cc(C)c1NC(=O)c1ccc2ncccc2c1` [2-128], in assay [1], the insecticidal activity is on record as 100%. In turn, `Cc1cc(C(F)(C(F)(F)F)C(F)(F)F)cc(C(C)C)c1NC(=O)c1ccc2c(ccc[n+]2[O-])c1` [2-36] came in with an insecticidal activity in assay [2] (setting [4]) of 100%. Same read-out and setting: with `N#Cc1ccc2cc(C(=O)Nc3c(Br)cc(OC(F)(F)F)cc3Br)ccc2n1` [2-139] the figure was 100%. Consider `O=C(Nc1c(Cl)cc(C(F)(C(F)(F)F)C(F)(F)F)cc1OC(F)F)c1ccc2ncccc2c1` [Compound No. 2-229, N-[2-chloro-(1,1,1,2,3,3,3-heptafluoropropan-2-yl)-6-(difluoromethoxy)phenyl]quinoline-6-carboxamide], for which the pest or weed control at 500 ppm in assay [2] (setting [4]) is 100%. As to `CCc1cc(C(Oc2ccc(Cl)cc2)(C(F)(F)F)C(F)(F)F)cc(C)c1NC(=O)c1ccc2ncccc2c1` [2-78], the insecticidal activity in assay [1] and in assay [2] (setting [4]) was 100% throughout. `Cc1cc(C(F)(C(F)(F)F)C(F)(F)C(F)(F)F)cc(C)c1NC(=O)c1ccc2ncccc2c1` (centres unmarked) [2-85] registered an acaricidal activity in assay [3] of 100%. As to `O=C(Nc1c(I)cc(C(F)(C(F)(F)F)C(F)(F)C(F)(F)F)cc1OC(F)F)c1ccc2c(ccc[n+]2[O-])c1` (centres unmarked) [Compound No. 2-175, N-[2-(difluoromethoxy)-6-iodo-4-(1,1,1,2,3,3,4,4,4-nonafluorobutan-2-yl)phenyl]quinoline-6-carboxamide N-oxide], the pest or weed control at 100 ppm in assay [1] is 100%. In addition, the pest or weed control at 500 ppm in assay [2] (setting [4]) worked out at 100%. For `CCc1cc(C(F)(C(F)(F)F)C(F)(F)F)cc(C)c1NC(=O)c1ccc2cc(C#N)ccc2c1` [Compound No. 1-4, 6-cyano-N-[2-ethyl-4-(1,1,1,2,3,3,3-heptafluoropropan-2-yl)-6-methylphenyl]-2-naphthamide], in assay [1], the pest or weed control at 100 ppm was determined as 100%. For the compound `O=C(Nc1c(I)cc(C(F)(C(F)(F)F)C(F)(F)Br)cc1I)c1ccc2ncccc2c1` (centres unmarked) [2-198], the insecticidal activity in assay [1] is listed as 100%.

Take `N#Cc1ccc2cc(C(=O)Nc3c(I)cc(C(F)(C(F)(F)F)C(F)(F)F)cc3SC(F)(F)F)ccc2n1` [2-161]: in assay [1], the insecticidal activity is given as 100%. With `CC(C)c1cc(C(F)(C(F)(F)F)C(F)(F)F)cc(C(C)C)c1NC(=O)c1ccc2c(ccc[n+]2[O-])c1` [2-57], the insecticidal activity in assay [2] (setting [4]) is 100%. As for `N#Cc1ccc2cc(C(=O)Nc3c(Br)cc(C(F)(C(F)(F)F)C(F)(F)C(F)(F)F)cc3SC(F)(F)F)ccc2n1` (centres unmarked) [2-185], the insecticidal activity in assay [1] and in assay [2] (setting [4]) was 100% in each case.

Take `CCCc1cc(C(F)(C(F)(F)F)C(F)(F)C(F)(F)F)cc(Br)c1NC(=O)c1ccc2nc(C#N)ccc2c1` (centres unmarked) [2-164]: the insecticidal activity in assay [1] and in assay [2] (setting [4]) was 100% in each case. In turn, `CCc1cc(C2(F)C(F)(F)C(F)(F)C(F)(F)C(F)(F)C2(F)F)cc(C)c1NC(=O)c1ccc2c(ccc[n+]2[O-])c1` [2-129] yielded an insecticidal activity in assay [1] of 100%. As for `CCc1cc(C(F)(C(F)(F)F)C(F)(F)C(F)(F)F)cc(C)c1NC(=O)c1ccc(N=c2ssnc2Cl)c(Br)c1` (centres unmarked) [5-4], the insecticidal activity in assay [1] was 100%.

Consider `O=C(Nc1c(I)cc(C(F)(C(F)(F)F)C(F)(F)C(F)(F)F)cc1SC(F)(F)F)c1ccc2ncccc2c1` (centres unmarked) [2-186], for which the insecticidal activity in assay [1] is reported as 100%.

Turning to `N#Cc1ccc2cc(C(=O)Nc3c(Cl)cc(C(F)(C(F)(F)F)C(F)(F)F)cc3Cl)ccc2n1` [2-61], the insecticidal activity in assay [1] and in assay [2] (setting [4]) was 100% throughout. Consider `Cc1cc(C(F)(C(F)(F)F)C(F)(F)F)cc(C)c1NC(=O)c1ccc2nc(Cl)ccc2c1` [Compound No. 2-17, 2-chloro-N-[4-(1,1,1,2,3,3,3-heptafluoropropan-2-yl)-2,6-dimethylphenyl]quinoline-6-carboxamide], for which, in assay [1], the pest or weed control at 100 ppm was found to be 100%. Also, in assay [2] (setting [4]), the pest or weed control at 500 ppm was found to be 100%.

Consider `Cc1cc(C(F)(C(F)(F)F)C(F)(F)F)cc(C)c1NC(=O)c1ccc2c(ccc(C#N)[n+]2[O-])c1` [Compound No. 2-21], for which the insecticidal activity in assay [1] and in assay [2] (setting [4]) was 100% in each case. With `O=C(Nc1c(I)cc(C(F)(C(F)(F)F)C(F)(F)F)cc1I)c1ccc2c(ccc[n+]2[O-])c1` [2-68], the insecticidal activity in assay [1] and in assay [2] (setting [4]) was 100% each time. In the case of `N#Cc1ccc2cc(C(=O)Nc3c(I)cc(C(F)(C(F)(F)F)C(F)(F)C(F)(F)F)cc3SC(F)(F)F)ccc2n1` (centres unmarked) [2-188], the insecticidal activity in assay [1] and in assay [2] (setting [4]) was 100% each time. Regarding `N#Cc1ccc2cc(C(=O)Nc3c(Br)cc(C(F)(C(F)(F)F)C(F)(F)C(F)(F)F)cc3Br)ccc2[n+]1[O-]` (centres unmarked) [2-270], the insecticidal activity in assay [1] came to 100%. Turning to `O=C(Nc1c(Br)cc(C(F)(C(F)(F)F)C(F)(F)F)cc1OC(F)F)c1ccc2ncccc2c1` [Compound No. 2-152, N-[2-bromo-(1,1,1,2,3,3,3-heptafluoropropan-2-yl)-6-(difluoromethoxy)phenyl]quinoline-6-carboxamide], the pest or weed control at 100 ppm in assay [1] was 100%. The pest or weed control at 500 ppm in assay [2] (in Cucumis sativus) was 100%. The compound `CCc1cc(C(F)(C(F)(F)F)C(F)(F)C(F)(F)F)cc(C)c1NC(=O)c1ccc2c(ccc[n+]2[O-])c1` (centres unmarked) [2-89] registered an insecticidal activity in assay [2] (setting [4]) of 100%. Regarding `O=C(Nc1c(Br)cc(C(F)(C(F)(F)F)C(F)(F)Br)cc1Br)c1ccc2ncccc2c1` (centres unmarked) [2-195], the insecticidal activity in assay [1] and in assay [2] (setting [4]) was 100% each time. Turning to `CCc1cc(C(F)(C(F)(F)F)C(F)(F)Br)cc(C)c1NC(=O)c1ccc2c(ccc[n+]2[O-])c1` (centres unmarked) [2-193], the insecticidal activity in assay [2] (setting [4]) came to 100%. With `Cc1cc(C(F)(C(F)(F)F)C(F)(F)F)cc(C)c1NC(=O)c1ccc2nccc(Br)c2c1` [2-13], the insecticidal activity in assay [1] and in assay [2] (setting [4]) was 100% in each case. As to `N#Cc1ccc2cc(C(=O)Nc3c(Br)cc(SC(F)(F)F)cc3Br)ccc2n1` [2-140], the insecticidal activity in assay [1] and in assay [2] (setting [4]) was 100% in each case.

Take `CCCc1cc(C(F)(C(F)(F)F)C(F)(F)C(F)(F)F)cc(I)c1NC(=O)c1ccc2ncccc2c1` (centres unmarked) [2-102]: the insecticidal activity in assay [1] is recorded as 100%.
